Assay results from patent US5032398A, “Selective modification of the catalytic subunit of pertussis toxin” (priority 1986, dated 1991).

Key:
pertussis toxin = pertussis toxin (Bordetella pertussis, UniProt P04977); experiment: NADase activity of pertussis toxin after activation and treatment with alkylating reagent (Example One); assay type: biochemical
Text: The ADP-ribosylating activity of the pertussis toxin can be detected as a nicotinamide-adenine dinucleotide-glycohydrolase (NADase) activity, which can be conveniently assayed through the use of [nicotinamide-^14 C] or [nicotinamide-^3 H] NAD. NAD consists of ADP-ribose linked to nicotinimide, and thus the extent of the release of ADP-ribose from NAD is an indication of the ability of the toxin to cause ill effects. In conducting this assay of the hydrolysis of labelled NAD, ion-exchange column chromatography was employed to resolve the product from the substrate according to the method described by Moss et al., J. Biol. Chem. 258, 11879 (1983) which is incorporated herein by reference. However, several modifications to this method were employed. First, a QAE-Sephadex resin was employed, as was a [nicotinamide-^3 H] NAD. Specifically, a 2 ml QAE-Sephadex column was first washed with 10 ml 1NHCl, followed by 10 ml H2 O, 20 ml 0.5M Tris-HCl pH 7.0, and 40 ml H2 O. [^3 H] NAD was applied, and the column washed with 20 ml water to elute impurities. Purified [^3 H] NAD was eluted with 0.25M NaCl, and stored in small aliquots at -70° C. The purified [^3 H] NAD contributed 50 mM NaCl (final concentration) to the NADase assays.
Before the end of the reaction, 2 ml QAE-Sephadex columns were treated with 10 ml 0.1M imidazole-HCl pH 7.0 with 1.0M NaCl, followed by 40 ml water. The NADase reaction (in 100 μl) was terminated by adding 0.85 ml of ice-cold water, and the entire 0.95 ml was pipetted into a treated QAE column. The labelled nicotinamide was then eluted with 3 ml of water directly into a scintillation vial and counted. The absorbed labelled NAD was then eluted into radioactive waste with 10 ml 0.1M imidazole-HCl pH 7.0 with 1.0M NaCl, and the column stored partially immersed in a water bath until the next assay.
In order to determine if any active toxin remained after the inactivation, a large excess of sulfhydryl reductant was added to each tube to scavenge unreacted sulfhydryl reagent. The NADase activity of the preparation was then measured. The three incubations were performed under a nitrogen atmosphere using degassed solutions to prevent oxidation of sulfhydryl groups which would prevent the sulfhydryl reagent from modifying the sulfhydryl group.
The pertussis toxin in the Examples comprised 50 μg of the toxin in a 500 μl solution of 10 mM sodium phosphate-50 mM sodium chloride-water solution having a pH of 7. The enzymatic activity was detected as the hydrolysis of nicotinamide labelled NAD and ion-exchange column chromatography to resolve the product from the substrate. Unless otherwise noted, the assay was initiated by adding 0.5 to 2.5 μg of the toxin to a reaction mixture for a final volume of 100 μl. The NADase reaction was terminated by adding 0.85 ml of ice-cold water. The entire 0.95 ml was then pipetted into a QAE-Sephadex column (chloride form) and the labelled nicotinamide eluted with 3 ml of water directly into a scintillation vial and counted. […] One unit of NADase activity is defined as 1 pmol NAD hydrolyzed per hour.
One-half microgram of pertussis toxin was incubated for thirty minutes at […] in 100 mM Tris-HCl (pH 8.0), with or without activators, in a volume of 50 μl. When present, ATP and pyrophosphate were present in a concentration of 2 mM, CHAPS at 2 weight percent, and DTT in a concentration of either 2 mM (trial 1) or 1 mM (trial 2). 10 μl of water with or without iodoacetate or N-ethylmaleimide was then added and a second incubation conducted at 30° C. for either thirty minutes (trial 1) or fifteen minutes (trial 2). After this incubation, 10 μl of 200 mM DTT was added to each tube, and the tubes were incubated for thirty (trial 1) or sixty minutes (trial 2) on ice to scavenge the iodoacetate or N-ethylmaleimide.

[1] = tested on: S1 -S5 subunits of the toxin; experiment: Labelled iodoacetate incorporation into toxin subunits, electrophoresis and x-ray film (Examples Two and Six); set-up: species or system Bordetella pertussis
S1 -S5 subunits of the toxin, sequence (P04977 35-269 limits assumed): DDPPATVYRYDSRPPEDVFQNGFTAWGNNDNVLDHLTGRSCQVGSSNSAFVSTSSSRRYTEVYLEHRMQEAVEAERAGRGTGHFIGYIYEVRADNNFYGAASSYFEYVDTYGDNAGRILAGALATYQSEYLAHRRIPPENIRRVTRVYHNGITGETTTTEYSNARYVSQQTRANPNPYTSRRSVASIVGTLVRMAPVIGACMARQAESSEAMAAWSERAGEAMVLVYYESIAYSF
S1 -S5 subunits of the toxin, sequence (P04978 28-226 limits assumed, further chain): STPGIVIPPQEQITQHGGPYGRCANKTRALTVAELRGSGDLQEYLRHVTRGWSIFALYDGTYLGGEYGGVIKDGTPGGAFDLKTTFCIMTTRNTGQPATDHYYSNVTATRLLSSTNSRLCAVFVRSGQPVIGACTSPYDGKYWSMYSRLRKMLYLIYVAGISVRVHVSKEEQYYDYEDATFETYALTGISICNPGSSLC
S1 -S5 subunits of the toxin, sequence (P04979 29-227 limits assumed, further chain): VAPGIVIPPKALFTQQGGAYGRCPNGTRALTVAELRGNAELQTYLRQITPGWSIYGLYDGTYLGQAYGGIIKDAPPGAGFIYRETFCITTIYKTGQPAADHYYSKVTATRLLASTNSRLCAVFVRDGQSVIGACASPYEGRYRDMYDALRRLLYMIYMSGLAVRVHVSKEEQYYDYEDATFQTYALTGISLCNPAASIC
S1 -S5 subunits of the toxin, sequence (P0A3R5 43-152 limits assumed, further chain): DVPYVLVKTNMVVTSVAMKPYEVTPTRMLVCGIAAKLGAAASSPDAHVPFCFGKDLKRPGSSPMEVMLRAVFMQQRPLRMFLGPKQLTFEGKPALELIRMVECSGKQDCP
S1 -S5 subunits of the toxin, sequence (P04981 35-133 limits assumed, further chain): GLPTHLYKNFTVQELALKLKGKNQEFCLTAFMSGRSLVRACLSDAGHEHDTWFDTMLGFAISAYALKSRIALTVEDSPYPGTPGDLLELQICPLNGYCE
Protocol: Pertussis toxin (2.5 μg) was incubated for thirty minutes at 37° C. in 50 μl of 50 mM Tris-HCl (pH 8.0) with or without combinations of the activators ATP, CHAPS and DTT. During this incubation, ATP was 1 mM, CHAPS was 1 weight percent, and DTT was 0.5 mM, when present. Following this incubation, 75 nmol (1.34 microCi of iodo[^14 C]acetate and 25 μl of water were then added, and the tubes incubated for an additional thirty minutes under nitrogen gas at 30° C. in the dark. This labelling reaction was terminated by adding 1 ml of ice-cold water containing 7.5 mM non-radioactive iodoacetate, 2.5 μg bovine serum albumin, and 150 μg sodium deoxycholate. After ten minutes on ice, 100 μl 72% triochloroacetic acid was added, and the precipitate recovered by centrifugation. Sodium dodecylsulfate and beta-mercaptoethanol were added, the sample heated to 95° C. for one minute, and then electrophoresed using 15% polyacrylamide gels. The fixed gels were then treated, dried and used to expose x-ray film at -70° C.
Pertussis toxin was incubated first at 37° C. for fifteen minutes in […] buffer A (100 mM Tris-HCl, pH 8.0 with 1 mM NaEDTA). EDTA was added to chelate divalent cations, which may promote oxidation of free --SH groups. During this incubation, DTT and ATP were present in concentrations of 1 mM each, and CHAPS was present in a concentration of 1 weight percent. Labelled iodoacetate was then added ([…], 12.5 mM), and the tube incubated on ice for twenty hours. The sample was then mixed with sodium dodecylsulfate and β-mercaptoethanol, heated at 95° C. for one minute, and electrophoresed. After electrophoresis, the gel was fixed, treated with Fluorohance (Research Products International), dried and used to expose x-ray film.

pertussis toxin, sequence (P04977 35-269 limits assumed): as the sequence (P04977 35-269 limits assumed) above

O=C(O)CI [iodoacetate]
NADase activity (%) of the activity of toxin treated the same way without alkylating agent (pertussis toxin; first incubation: DTT 1 mM, CHAPS 2%, ATP 2 mM, Experiment #2, second incubation 15 min at 30° C, 25 μM NAD): 3%
NADase activity (%) of the activity of toxin treated the same way without alkylating agent (pertussis toxin; first incubation: DTT 1 mM, CHAPS 2%, pyrophosphate 2 mM, Experiment #2, second incubation 15 min at 30° C, 25 μM NAD): 31%
NADase activity (%) of the activity of toxin treated the same way without alkylating agent (pertussis toxin; first incubation: DTT 2 mM, CHAPS 2%, ATP 2 mM, Experiment #1, second incubation 30 min at 30° C, 125 μM NAD): 4%
NADase activity (%) of the activity of toxin treated the same way without alkylating agent (pertussis toxin; first incubation: DTT 2 mM, CHAPS 2%, pyrophosphate 2 mM, Experiment #1, second incubation 30 min at 30° C, 125 μM NAD): 28%
NADase activity (%) of the activity of toxin treated the same way without alkylating agent (pertussis toxin; first incubation: none, Experiment #1, second incubation 30 min at 30° C, 125 μM NAD): 62%
NADase activity (%) of the activity of toxin treated the same way without alkylating agent (pertussis toxin; first incubation: none, Experiment #2, second incubation 15 min at 30° C, 25 μM NAD): 87%
Amount of label incorporated into the S1 subunit ([1]; DTT 1 mM, ATP 1 mM, CHAPS 1%, labelled iodoacetate on ice for twenty hours): equal to the sum of that incorporated into the S2 and S3 subunits
Carboxymethylation of toxin subunits, in words ([1]; after activation of the toxin by DTT, ATP and CHAPS): carboxymethylated the enzymatic S1 subunit
Extent of carboxymethylation of the toxin ([1]; pH lowered from 8 to 7): decreases somewhat
